The record followed here is paper PMC9865645, “The Impact of N^ε-Acryloyllysine Piperazides on the Conformational Dynamics of Transglutaminase 2” (International Journal of Molecular Sciences, 2023).

For one assay, the target named is T1, His6-hTGase 2 (Homo sapiens, UniProt P21980).
T1 construct: purchased Zedira (Darmstadt, Germany) T022, lot 0716a
T1 sequence (P21980 1-687): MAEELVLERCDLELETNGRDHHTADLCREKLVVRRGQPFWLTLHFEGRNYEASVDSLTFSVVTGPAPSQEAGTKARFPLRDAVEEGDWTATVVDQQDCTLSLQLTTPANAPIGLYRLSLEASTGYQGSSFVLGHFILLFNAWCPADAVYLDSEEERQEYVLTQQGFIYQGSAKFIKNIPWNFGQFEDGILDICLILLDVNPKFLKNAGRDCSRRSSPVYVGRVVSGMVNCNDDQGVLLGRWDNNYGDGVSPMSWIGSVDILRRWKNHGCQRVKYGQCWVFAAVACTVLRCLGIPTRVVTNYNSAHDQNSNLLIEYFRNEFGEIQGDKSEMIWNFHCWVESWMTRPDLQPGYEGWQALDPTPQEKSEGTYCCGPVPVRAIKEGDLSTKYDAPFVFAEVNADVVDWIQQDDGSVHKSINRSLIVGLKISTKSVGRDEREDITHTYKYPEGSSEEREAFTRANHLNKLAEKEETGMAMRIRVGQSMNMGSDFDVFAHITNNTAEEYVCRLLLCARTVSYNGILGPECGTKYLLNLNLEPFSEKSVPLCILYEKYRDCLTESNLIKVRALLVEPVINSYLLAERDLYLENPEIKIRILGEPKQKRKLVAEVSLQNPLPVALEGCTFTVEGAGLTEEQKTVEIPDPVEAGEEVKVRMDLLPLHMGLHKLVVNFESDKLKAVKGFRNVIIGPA
The assay is described as follows: fluorimetric activity assay (substrate Z-Glu(HMC)-Gly-OH) for kinact/KI. Type of assay: biochemical. As to conditions: mean (SEM) of two to four experiments.

In a further assay the target is T2, commercial His6-hTGase 2 (Homo sapiens, UniProt P21980).
T2 construct: purchased Zedira (Darmstadt, Germany) T022, lot 0716a
T2 sequence (P21980 1-687): T1 sequence (P21980 1-687)
The assay is described as follows: fluorescence anisotropy (FA)-based transamidase activity assay, commercial His6-hTGase 2. Format: biochemical. The procedure: For the analysis of inhibitor 1 on self-produced hTGase 2, 2 µg/mL of the enzyme was used to guarantee comparability with the value reported by Wodtke et al., whereas all other experiments were performed with 5 µg/mL of either commercial or self-produced hTGase 2 (corresponding to 64.1 and 61.6 nM, respectively, when assuming 100% active protein). Parallel and perpendicular fluorescence intensities were measured over 1190 s in 35 s intervals (1) or over 1776 s in 48 s intervals (2, 3) and used to calculate the FA. Data of FA for the first 875 s (1) or 384 s (2, 3) were analyzed by linear regression, with slopes corresponding to enzymatic rates. Rates in the presence of inhibitor were normalized by dividing them by the respective rate in the absence of inhibitor, and normalized rates were analyzed according to Equation (S29) in Supplementary Materials to calculate values of IC50. Data analysis was performed with Microsoft Excel (Microsoft Office Professional Plus 2016, Microsoft® Corporation, USA) and GraphPad Prism version 5.03 or version 6.07 for Windows (GraphPad Software, La Jolla, CA, USA).
Background: Polarisation of emitted light reports the rotation of a fluorescent probe.

A further assay concerns the target T3, hTGase 2 (Homo sapiens, UniProt P21980).
T3 construct: purchased Zedira (Darmstadt, Germany) T022, lot 0716a
T3 sequence (P21980 1-687): T1 sequence (P21980 1-687)
In words: switchSENSE static mode (fluorescence proximity sensing): binding kinetics of GTPγS to hTGase 2-dsDNA lever. As to conditions: for koff / kon: 20 nM GTPγS, best-fit ± standard error; for Kd: quotient koff/kon. The method, then:
The switchSENSE® experiments were performed with a DRX^2 (Dynamic Biosensors, excitation 600–630 nm, emission 650–686 nm). All experiments were performed in TE40 (10 mM TRIS pH 7.4, 40 mM NaCl, 50 µM EDTA, 50 µM EGTA, 100 µM TCEP, 0.05% Tween 20) when not explicitly stated otherwise. For the dynamic mode measurements, the standard operation procedures as described in [56] were applied. For measurements of the kinetics of the interaction of both GTPγS and CaCl2 with hTGase 2, firstly, the ssDNA-hTGase 2 conjugate was hybridized for 360 s to the ssDNA capture strand on the gold microelectrodes of the chip. With 500 nM, the conjugate concentration was chosen relatively high to achieve full coverage of the electrodes. Secondly, 1000 µL of 20 nM GTPγS in TE40 were flushed over the electrodes, followed by about 4000 µL of TE40 (2000 µL/min), to obtain access to the association as well as the dissociation, respectively. Changes in the fluorescence intensity during the GTPγS interaction were recorded using fluorescence proximity sensing (static mode).
The formation of the protein–ligand complex of GTPγS and hTGase 2 can be represented by the reaction equation expressed by Equation (1). (1) P+L kon⇌koff PL
The concentration of the protein–ligand complex, [PL] , at a certain time of association ta is [PL]a . At the beginning of the association, there is no surface-bound complex present, i.e., [PL]=0 , and the ligand concentration is assumed to be constant at [L]=cGTPγS . This neglects diffusion limitation by assuming continuous replacement of the medium at the electrode surface in the microfluidic channel. Thus, the time-dependent equilibrium fraction reached at the association time ta can be expressed by Equation (2). For derivation, see Equations (S1) to (S5) in Supplementary Materials. (2) [PL]a/[PL]∞=1−e^−ka·ta
In Equation (2), [PL]∞ is the equilibrium concentration of the protein–ligand complex, and ka is the apparent rate constant in the association experiment, defined by Equation (3). (3) ka=cGTPγS kon+koff
During the dissociation, the concentration of the free ligand is assumed to be constantly zero. Consequently, Equation (6) should be valid (for derivation, see Equations (S7) to (S10) in Supplementary Materials). (6) [PL]d/[PL]d,0=e^−koff·td
Combining Equations (6) and (7), the time-dependent fluorescence intensity during the dissociation is given by Equation (8). (8) Fd=(Fd,s−Fd,e)(e^−koff·td)+Fd,e
Equations (5) and (8) were fitted to the measured fluorescence intensities of the association and dissociation experiments with 20 nM GTPγS, respectively. This was performed by a damped Gauss–Newton algorithm (see Equations (S12) and (S13) in Supplementary Materials) to determine the best-fit parameters, and consequently, kon and koff. The quotient koff/kon is the dissociation constant, Kd. Additionally, the standard errors of these parameters were estimated (Equations (S14) to (S21) in Supplementary Materials).

Setting [1] is: His-tag-directed labeling of hTGase 2.
The mark [2] stands for this setting: non-directed labeling of hTGase 2.

SMILES strings stand for the structures.

One may read the kinact/KI as the maximal inactivation rate divided by the concentration that gives half of it. Usually IC50 stands for the concentration that inhibits the measured activity by half. Lower therefore signals higher potency. `C=CC(=O)NCCCC[C@H](NC(=O)Cc1ccccc1I)C(=O)N1CCN(c2ccc([N+](=O)[O-])nc2)CC1` [Compound 2, N^α-(2-Iodophenylacetyl)-N^ε-acryloyl-L-lysin-4-(2-nitropyridin-5-yl)piperazide]: on His6-hTGase 2, the kinact/KI was found to be 8340 M⁻¹ s⁻¹. In addition, the concentration for half-maximal inhibition (IC50) was 0.154 µM on commercial His6-hTGase 2 (5 min pre-incubation of enzyme and inhibitor, mean (SEM) of three experiments); 0.0474 µM against commercial His6-hTGase 2 (30 min pre-incubation, hTGase 2 (Zedira) 64.1 nM, mean (SEM)); 0.035 to 0.047 µM against commercial His6-hTGase 2 (FA assay, 30 min pre-incubation, range over in-house and commercial hTGase 2 (62–64 nM)). At commercial His6-hTGase 2 (FA assay, 30 min pre-incubation, range over in-house and commercial hTGase 2), the “ratio of the IC50 and the molar enzyme concentration” value was 0.57–0.74.

A word on the Kd: it is the concentration at which binding is half-saturated. Turning to `Nc1nc2c(ncn2[C@@H]2O[C@H](COP(=O)(O)OP(=O)(O)OP(O)(O)=S)[C@@H](O)[C@H]2O)c(=O)[nH]1` [GTPγS], on hTGase 2 (setting [1]), the koff is listed as 1.9 ± 0.5 10^−2 s^−1, the kon is recorded as 16 ± 2 10^6 M^−1 s^−1 and binding was put at a Kd of 0.0012 ± 0.0004 µM. In addition, on hTGase 2 (setting [2]), the koff was 1.6 ± 0.6 10^−2 s^−1, the kon was 17 ± 4 10^6 M^−1 s^−1 and the Kd came to 0.001 ± 0.0004 µM.
